Measured values: PubChem BioAssay (NCI)
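Five concentrations, 48 hours, 96-well plates. The concentration for full growth arrest is given as TGI.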

Key:
Experiment in all cases: NCI-60 cell line screen, 48 h
[1] = test system: 786-0 renal
[2] = test system: A498 renal
[3] = test system: A549 NSCLC
[4] = test system: ACHN renal
[5] = test system: BT-549 breast
[6] = test system: COLO 205 colon
[7] = test system: EKVX NSCLC
[8] = test system: HCC-2998 colon
[9] = test system: HCT-116 colon
[10] = test system: HCT-15 colon
[11] = test system: HL-60(TB) leukemia
[12] = test system: HOP-62 NSCLC
[13] = test system: HS 578T breast
[14] = test system: HT29 colon
[15] = test system: IGROV1 ovarian
[16] = test system: K-562 leukemia
[17] = test system: KM12 colon
[18] = test system: LOX IMVI melanoma
[19] = test system: M14 melanoma
[20] = test system: MALME-3M melanoma
[21] = test system: MCF7 breast
[22] = test system: MDA-MB-231 breast
[23] = test system: MDA-MB-435
[24] = test system: MDA-N
[25] = test system: MOLT-4 leukemia
[26] = test system: NCI-H23 lung
[27] = test system: NCI-H460 lung
[28] = test system: NCI-H522 lung
[29] = test system: NCI/ADR-RES ovarian
[30] = test system: OVCAR-3 ovarian
[31] = test system: OVCAR-5 ovarian
[32] = test system: OVCAR-8 ovarian
[33] = test system: PC-3 prostate
[34] = test system: RPMI-8226 leukemia
[35] = test system: SF-295 CNS
[36] = test system: SF-539 CNS
[37] = test system: SK-MEL-2 melanoma
[38] = test system: SK-MEL-28 melanoma
[39] = test system: SK-MEL-5 melanoma
[40] = test system: SN12C renal
[41] = test system: SNB-19 CNS
[42] = test system: SR leukemia
[43] = test system: SW-620 colon
[44] = test system: T-47D breast
[45] = test system: TK-10 renal
[46] = test system: U251 CNS
[47] = test system: UACC-257 melanoma
[48] = test system: UACC-62 melanoma
[49] = test system: UO-31 renal
[50] = test system: CAKI-1 renal
[51] = test system: CCRF-CEM leukemia
[52] = test system: DU-145 prostate
[53] = test system: HOP-92 NSCLC
[54] = test system: NCI-H226 lung
[55] = test system: OVCAR-4 ovarian
[56] = test system: RXF 393 renal
[57] = test system: SF-268 CNS
[58] = test system: SK-OV-3 ovarian
[59] = test system: SNB-75 CNS

`COc1cc2c3c(c1O)N=NC=3CCN=2` gave a TGI [1] of 32.7 µM, a TGI [2] of 75.4 µM and a TGI [3] of 66.4 µM. The TGI [4] was 33.8 µM, the TGI [5] was 31.7 µM and the TGI [6] was 35.2 µM. The TGI [7] was 30.7 µM, the TGI [8] was over 100 µM and the TGI [9] was 28.1 µM. It also gave a TGI [10] of over 100 µM, a TGI [11] of 14.8 µM and a TGI [12] of 97.3 µM. It also gave a TGI [13] of over 100 µM, a TGI [14] of 28.8 µM and a TGI [15] of 34 µM. For the same molecule, the TGI [16] was 18.3 µM, the TGI [17] was 88.4 µM and the TGI [18] was 18 µM. The TGI [19] was 28.8 µM, the TGI [20] was 30.2 µM and the TGI [21] was 20.2 µM. The TGI [22] was 29.8 µM, the TGI [23] was 24.5 µM and the TGI [24] was 25.1 µM. For the same molecule, the TGI [25] was 50.4 µM, the TGI [26] was 38.2 µM and the TGI [27] was 80.1 µM. For the same molecule, the TGI [28] was 19.4 µM, the TGI [29] was over 100 µM and the TGI [30] was 31 µM. It also gave a TGI [31] of 34.4 µM, a TGI [32] of 30.9 µM and a TGI [33] of 84.8 µM. The TGI [34] was 31.1 µM, the TGI [35] was 50.9 µM and the TGI [36] was 35.5 µM. For the same molecule, the TGI [37] was 30.9 µM, the TGI [38] was 32.1 µM and the TGI [39] was 32.5 µM. It also gave a TGI [40] of 29.3 µM, a TGI [41] of over 100 µM and a TGI [42] of 42.3 µM. The TGI [43] was 31.7 µM, the TGI [44] was 23.3 µM and the TGI [45] was 52.3 µM. For the same molecule, the TGI [46] was 30.6 µM, the TGI [47] was 29.1 µM and the TGI [48] was 30.7 µM. It also gave a TGI [49] of 62.5 µM.
`COC(=O)C1SC(N(C)c2ccccc2)=NC12c1ccccc1Nc1ccccc12` (configuration not stated) was tested, and the TGI [1] was 94 µM, the TGI [2] was 55.6 µM and the TGI [3] was 87.8 µM. It also gave a TGI [4] of over 100 µM, a TGI [5] of 45.1 µM and a TGI [50] of 74.6 µM. For the same molecule, the TGI [51] was 57.7 µM, the TGI [6] was 30.7 µM and the TGI [52] was over 100 µM. It also gave a TGI [7] of 66.3 µM, a TGI [8] of 42.4 µM and a TGI [9] of 53.5 µM. The TGI [10] was 49.3 µM, the TGI [11] was 37.5 µM and the TGI [12] was over 100 µM. For the same molecule, the TGI [53] was 59.4 µM, the TGI [13] was 53 µM and the TGI [14] was 62.2 µM. The TGI [15] was 53.1 µM, the TGI [16] was 47.7 µM and the TGI [17] was 66.7 µM. It also gave a TGI [18] of 50.8 µM, a TGI [19] of 38.7 µM and a TGI [20] of 30.9 µM. For the same molecule, the TGI [21] was 81.9 µM, the TGI [23] was 40 µM and the TGI [24] was 57 µM. It also gave a TGI [25] of 28.4 µM, a TGI [54] of 51.5 µM and a TGI [26] of 35.9 µM. The TGI [27] was 27 µM, the TGI [28] was 38.5 µM and the TGI [29] was 65.4 µM. It also gave a TGI [30] of 34.1 µM, a TGI [55] of 73.9 µM and a TGI [31] of 55.2 µM. The TGI [32] was 67.6 µM, the TGI [33] was 53.9 µM and the TGI [34] was 12 µM. For the same molecule, the TGI [56] was over 100 µM, the TGI [57] was 72.5 µM and the TGI [35] was 50.7 µM. The TGI [36] was 38.6 µM, the TGI [37] was 31.7 µM and the TGI [38] was 45.8 µM. For the same molecule, the TGI [39] was 26 µM, the TGI [58] was over 100 µM and the TGI [40] was 66.7 µM. For the same molecule, the TGI [41] was 66.1 µM, the TGI [59] was 84.7 µM and the TGI [42] was 43.3 µM. The TGI [43] was over 100 µM, the TGI [44] was 50 µM and the TGI [45] was 72.5 µM. For the same molecule, the TGI [46] was 98.8 µM, the TGI [47] was 64 µM and the TGI [48] was 32 µM. For the same molecule, the TGI [49] was 52.3 µM.
